This note sets out measurements from patent publication US10245275B2 (ViiV HEALTHCARE UK (NO.4) LIMITED, priority 2014, dated 2019).

Read-outs that look alike come from different tables or passages of the source.

Assay [1] relates to WT (wild-type HIV virus; recombinant NL4-3 virus). Briefly: microbe, parasite or virus in culture. It is filed as cell-based, HIV-1. In short, it runs like this: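 MT-2 cells infected 4-5 days with NL4-3 carrying Renilla luciferase in place of part of nef (Gag P373S), virus made by 293T transfection, with serial inhibitor dilutions. Antiviral activity read as luciferase activity by a modified dual-luciferase read-out.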

The test system of assay [2] is HIV-1 NL4-3 gag A364V virus. Briefly: microbe, parasite or virus in culture. In kind it is cell-based. In a few lines:
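Recombinant NL4-3 reporter virus with Renilla luciferase replacing part of nef, made by transfection of 293T cells. MT-2 cells infected for 4-5 days with serial inhibitor dilutions; antiviral activity quantified by luciferase activity.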

In assay [3] the test system is HIV-1 92UG029 (clade A virus). Briefly: HIV cell culture assay, 92UG029 Gag/Pr recombinant virus in MT-2 cells. It is filed as cell-based. As to the method:
MT-2 cells and 293T cells were obtained from the NIH AIDS Research and Reference Reagent Program. MT-2 cells were propagated in RPMI 1640 media supplemented with 10% heat-inactivated fetal bovine serum, […]. The 293T cells were propagated in DMEM media supplemented with 10% heat-inactivated fetal bovine serum (FBS), 100 units/mL penicillin G and 100 μg/mL streptomycin. The proviral DNA clone of NL4-3 was obtained from the NIH AIDS Research and Reference Reagent Program. A recombinant NL4-3 virus, in which a section of the nef gene from NL4-3 was replaced with the Renilla luciferase gene, was used as a reference virus. In addition, residue Gag P373 was converted to P373S. Briefly, the recombinant virus was prepared by transfection of the altered proviral clone of NL4-3. Transfections were performed in 293T cells using LipofectAMINE PLUS from Invitrogen (Carlsbad, Calif.), according to manufacturer's instruction. The virus was titered in MT-2 cells using luciferase enzyme activity as a marker. Luciferase was quantitated using the Dual Luciferase kit from Promega (Madison, Wis.), with modifications to the manufacturer's protocol. The diluted Passive Lysis solution was pre-mixed with the re-suspended Luciferase Assay Reagent and the re-suspended Stop & Glo Substrate (2:1:1 ratio). Fifty (50) μL of the mixture was added to each aspirated well on assay plates and luciferase activity was measured immediately on a Wallac TriLux (Perkin-Elmer). Antiviral activities of inhibitors toward the recombinant virus were quantified by measuring luciferase activity in cells infected for 4-5 days with NLRluc recombinants in the presence serial dilutions of the inhibitor.
Determination of EC50 for WT, EC50 for A364V, and EC50 for 92UG029 viruses:
HIV-1 92UG029 was obtained from the NIH (Catalog Number: 1650). This is a subtype A Gag and subtype A Env, X4 (SI) virus from Uganda. Reference: WHO Network for HIV Isolation and Characterization. AIDS Res Hum Retroviruses 10:1359, 1994. The Gag/Pr region from 92UG029 was used to replace that in an HIV-1 NL4-3 virus expressing Renilla luciferase gene.
Both recombinant viruses were used as described above in the HIV cell culture assay for the NL4-3 virus.

Where [4] appears, read: Human immunodeficiency virus 1, NL43, MT2, read-out: WT (EC50, uM), Table 1 regular screen, MT-2 cells, luciferase readout.
Where [5] appears, read: Human immunodeficiency virus 1, NL43, MT2, read-out: A364V (EC50, uM), Table 1 regular screen, MT-2 cells, luciferase readout.
The mark [6] stands for this setting: Human immunodeficiency virus 1, MT2, read-out: 92UG029A Clade T332S/V362I/V370A (EC50, uM).
Where [7] appears, read: Human immunodeficiency virus 1, NL43, MT2, read-out: WT (EC50, uM), Table 1 regular screen, class symbol.
Setting [8] is: Human immunodeficiency virus 1, NL43, MT2, read-out: A364V (EC50, uM), Table 1 regular screen, class symbol.

`C=C(C)[C@@H]1CC[C@]2(NCCN3CCC(S(C)(=O)=O)CC3)CC[C@]3(C)[C@H](CC[C@@H]4[C@@]5(C)CC=C(C6=CC[C@](CF)(C(=O)O)CC6)C(C)(C)[C@@H]5CC[C@]43C)[C@@H]12` [Example 1a, (S)-1-(fluoromethyl)-4-((1R,3aS,5aR,5bR,7aR,11aS,11bR,13aR,13bR)-5a,5b,8,8,11a-pentamethyl-3a-((2-(4-(methylsulfonyl)piperidin-1-yl)ethyl)amino)-1-(prop-1-en-2-yl)-2,3,3a,4,5,5a,5b,6,7,7a,8,11,11a,11b,12,13,13a,13b-octadecahydro-1H-cyclopenta[a]chrysen-9-yl)cyclohex-3-enecarboxylic acid]: the EC50 in assay [1] (setting [4]) came to 0.00225 µM; in assay [2] (setting [5]), 0.109 µM; in assay [3] (setting [6]), 0.00532 µM.
On to `C=C(C)[C@@H]1CC[C@]2(NCC[C@]3(O)CC[C@@H](S(C)(=O)=O)CC3)CC[C@]3(C)[C@H](CC[C@@H]4[C@@]5(C)CC=C(C6=CC[C@@](CF)(C(=O)O)CC6)C(C)(C)[C@@H]5CC[C@]43C)[C@@H]12` [Example 2-20, (R)-1-(fluoromethyl)-4-((1R,3aS,5aR,5bR,7aR,11aS,11bR,13aR,13bR)-3a-((2-((cis)-1-hydroxy-4-(methylsulfonyl)cyclohexyl)ethyl)amino)-5a,5b,8,8,11a-pentamethyl-1-(prop-1-en-2-yl)-2,3,3a,4,5,5a,5b,6,7,7a,8,11,11a,11 b,12,13,13a,13b-octadecahydro-1H-cyclopenta[a]chrysen-9-yl)cyclohex-3-enecarboxylic acid], for which the figures for the EC50 in assay [1] (setting [7]), in assay [2] (setting [8]) and in assay [3] (setting [6]) were less than 0.05 µM, greater than 0.05 µM and less than 0.05 µM, respectively.
On to `C=C(C)[C@@H]1CC[C@]2(NCC[C@]3(O)CC[C@](C)(O)CC3)CC[C@]3(C)[C@H](CC[C@@H]4[C@@]5(C)CC=C(C6=CC[C@@](CF)(C(=O)O)CC6)C(C)(C)[C@@H]5CC[C@]43C)[C@@H]12` [Example 2-17, (R)-4-((1R,3aS,5aR,5bR,7aR,11aS,11bR,13aR,13bR)-3a-((2-((trans)-1,4-dihydroxy-4-methylcyclohexyl)ethyl)amino)-5a,5b,8,8,11a-pentamethyl-1-(prop-1-en-2-yl)-2,3,3a,4,5,5a,5b,6,7,7a,8,11,11a,11b,12,13,13a,13b-octadecahydro-1H-cyclopenta[a]chrysen-9-yl)-1-(fluoromethyl)cyclohex-3-enecarboxylic acid], for which the EC50 in assay [1] (setting [7]) was less than 0.05 µM; in assay [2] (setting [8]) it was less than 0.05 µM; in assay [3] (setting [6]), 0.00937 µM.
In the case of `C=C(C)[C@@H]1CC[C@]2(NCCN3CCC(S(C)(=O)=O)CC3)CC[C@]3(C)[C@H](CC[C@@H]4[C@@]5(C)CC=C(C6=CC[C@@](CF)(C(=O)O)CC6)C(C)(C)[C@@H]5CC[C@]43C)[C@@H]12` [Example 1b, (R)-1-(fluoromethyl)-4-((1R,3aS,5aR,5bR,7aR,11aS,11bR,13aR,13bR)-5a,5b, 8,8,11a-pentamethyl-3a-((2-(4-(methylsulfonyl)piperidin-1-yl)ethyl)amino)-1-(prop-1-en-2-yl)-2,3,3a,4,5,5a,5b,6,7,7a,8,11,11a,11 b,12,13,13a,13b-octadecahydro-1H-cyclopenta[a]chrysen-9-yl)cyclohex-3-enecarboxylic acid], the EC50 in assay [1] (setting [4]) was found to be 0.00193 µM; in assay [2] (setting [5]) it was 0.176 µM; in assay [3] (setting [6]), 0.00348 µM.
As to `C=C(C)[C@@H]1CC[C@]2(NCCN3CCC(S(C)(=O)=O)CC3)CC[C@]3(C)[C@H](CC[C@@H]4[C@@]5(C)CC=C(C6=CCC(CF)(C(=O)O)CC6)C(C)(C)[C@@H]5CC[C@]43C)[C@@H]12` (mixture of isomers) [Example 1, 1-(fluoromethyl)-4-((1R,3aS,5aR,5bR,7aR,11aS,11bR,13aR,13bR)-5a,5b,8,8,11a-pentamethyl-3a-((2-(4-(methylsulfonyl)piperidin-1-yl)ethyl)amino)-1-(prop-1-en-2-yl)-2,3,3a,4,5,5a,5b,6,7,7a,8,11,11a,11b,12,13,13a,13b-octadecahydro-1H-cyclopenta[a]chrysen-9-yl)cyclohex-3-enecarboxylic acid], the values for the EC50 in assay [1] (setting [4]), in assay [2] (setting [5]) and in assay [3] (setting [6]) were 0.00175 µM, 0.123 µM and 0.00293 µM, respectively.
In the case of `C=C(C)[C@@H]1CC[C@]2(NCCN3CCC(S(C)(=O)=O)CC3)CC[C@]3(C)[C@H](CC[C@@H]4[C@@]5(C)CC=C(C6=CCC(F)(C(=O)O)CC6)C(C)(C)[C@@H]5CC[C@]43C)[C@@H]12` (stereo partly drawn) [Compound A, reference compound], the EC50 in assay [1] (Human immunodeficiency virus 1, NL43, MT2, read-out: EC50 WT (μM), Table 2, 3× higher viral input) was 0.004 µM; in assay [2] (Human immunodeficiency virus 1, NL43, MT2, read-out: EC50 A364V (μM), Table 2, 3× higher viral input), 1.5 µM; in assay [3] (Human immunodeficiency virus 1, MT2, read-out: EC50 92UG029 (μM)), 0.61 µM. In addition, the “potency vs. WT (in words)” value in assay [1] (comparative data) was “good potency”. Besides, in assay [2] (relative to Compound 2), the “fold less potent than Compound 2 vs A364V” value was “about 7 fold”. In addition, the “fold less potent than Compound 2 vs 92UG029” value in assay [3] (relative to Compound 2) is listed as greater than 100 fold.
Take `C=C(C)[C@@H]1CC[C@]2(NCCC3(O)COC3)CC[C@]3(C)[C@H](CC[C@@H]4[C@@]5(C)CC=C(C6=CC[C@@](CF)(C(=O)O)CC6)C(C)(C)[C@@H]5CC[C@]43C)[C@@H]12` [Example 2-11, (R)-1-(fluoromethyl)-4-((1R,3aS,5aR,5bR,7aR,11aS,11bR,13aR,13bR)-3a-((2-(3-hydroxyoxetan-3-yl)ethyl)amino)-5a,5b, 8,8,11a-pentamethyl-1-(prop-1-en-2-yl)-2,3,3a,4,5,5a,5b,6,7,7a,8,11,11a,11b,12,13,13a,13b-octadecahydro-1H-cyclopenta[a]chrysen-9-yl)cyclohex-3-enecarboxylic acid]: the EC50 in assay [1] (setting [7]) was less than 0.05 µM; in assay [2] (setting [8]), greater than 0.05 µM; in assay [3] (setting [6]), 0.0153 µM.
